In patent US6342523B1, “3,4,5-trisubstituted aryl nitrone compounds, pharmaceutical compositions containing the same and methods for treating inflammation” (Centaur Pharmaceuticals, Inc., priority 1998, dated 2002):
Blank lines part the entries; values can stand above or below the compound they belong to.

Assays:
[1] = system: adjuvant-induced footpad edema; experiment: Adjuvant assay (adjuvant-induced footpad edema); assay type: in vivo; details: Male Lewis rats; 3 mg/kg, po; dosing day 14 to day 21 post-adjuvant
Experimental: This assay is a model for chronic inflammation. See, for example, […], “Rat Adjuvant Arthritis: A Model of Chronic Inflammation,” Pharmacological Methods in the Control of Inflammation, 363-380 (1989) and references cited therein. In this assay, Male Lewis rats weighing between 180-220 g were lightly anesthetized with an ip injection of 30 mg/kg of sodium pentobarbital (50 mg/mL). Desiccated Mycobacterium butyrium (Difco, 20 mg/mL) suspended in mineral oil was injected (50 μL) at both sides of the base of the tail under the skin. A line was tattooed on both rear paws at 5 mm above the angle of the ankle. The paw volumes, under the line, were measured by volume displacement using a plethysmonmeter (Ugo Basile) at the day of adjuvant injection (day 0) and on day 14. On day 14, animals with paw volumes equal to the mean of paw volumes±SD were randomized into treatment groups. Rats which fell outside±1 SD were not used in the experiment. […] Dosing began on day 14, and continued until final assessment on day 21 post-adjuvant injection. […] This group has a slightly positive volume increase when paw volumes on day 21 are subtracted from day 0 values due to growth of the rat. […] Compounds reducing paw volume by at least about 30% compared to vehicle control group were considered effective in this test.

cyclooxygenase 1 (COX-1) = biological target: T1, cyclooxygenase 1 (COX-1) (Ovis aries, UniProt P05979); experiment: Inhibition of COX-1 (arachidonic acid incubation, PGE2 formation by malondialdehyde quantitation); details: 300 μM; COX-1 derived from ram seminal vesicles
T1 sequence (P05979 25-600): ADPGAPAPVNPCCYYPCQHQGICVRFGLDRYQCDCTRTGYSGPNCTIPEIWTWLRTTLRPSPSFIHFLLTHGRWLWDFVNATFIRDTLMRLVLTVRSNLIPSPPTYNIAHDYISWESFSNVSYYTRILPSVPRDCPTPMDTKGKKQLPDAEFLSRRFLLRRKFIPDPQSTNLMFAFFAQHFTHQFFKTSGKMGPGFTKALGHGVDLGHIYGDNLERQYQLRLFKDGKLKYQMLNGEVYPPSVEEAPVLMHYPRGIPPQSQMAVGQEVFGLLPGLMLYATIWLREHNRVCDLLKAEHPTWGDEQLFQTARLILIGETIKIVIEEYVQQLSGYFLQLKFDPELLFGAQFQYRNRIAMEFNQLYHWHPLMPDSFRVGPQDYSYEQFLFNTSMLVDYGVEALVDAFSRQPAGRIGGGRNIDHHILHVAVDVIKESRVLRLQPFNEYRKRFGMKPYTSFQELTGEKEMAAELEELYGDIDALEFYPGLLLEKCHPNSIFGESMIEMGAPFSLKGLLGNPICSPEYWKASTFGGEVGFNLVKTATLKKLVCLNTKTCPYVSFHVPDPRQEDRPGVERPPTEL
Experimental: (§1) The inhibition of COX-I was measured by incubating arachidonic acid with COX-1 derived from ram seminal vesicles. The inhibition of COX-2 was measured by incubation of arachidonic acid with COX-2 derived from sheep placenta. […] In each assay, the formation of prostaglandin E2 (PGE2) was measured by spectrophotometric quantitation of malondialdehyde.

cyclooxygenase 2 (COX-2) = biological target: T2, cyclooxygenase 2 (COX-2) (Ovis aries, UniProt P79208); experiment: Inhibition of COX-2 (arachidonic acid incubation, PGE2 formation by malondialdehyde quantitation); details: 300 μM; COX-2 derived from sheep placenta
T2 sequence (P79208 17-603): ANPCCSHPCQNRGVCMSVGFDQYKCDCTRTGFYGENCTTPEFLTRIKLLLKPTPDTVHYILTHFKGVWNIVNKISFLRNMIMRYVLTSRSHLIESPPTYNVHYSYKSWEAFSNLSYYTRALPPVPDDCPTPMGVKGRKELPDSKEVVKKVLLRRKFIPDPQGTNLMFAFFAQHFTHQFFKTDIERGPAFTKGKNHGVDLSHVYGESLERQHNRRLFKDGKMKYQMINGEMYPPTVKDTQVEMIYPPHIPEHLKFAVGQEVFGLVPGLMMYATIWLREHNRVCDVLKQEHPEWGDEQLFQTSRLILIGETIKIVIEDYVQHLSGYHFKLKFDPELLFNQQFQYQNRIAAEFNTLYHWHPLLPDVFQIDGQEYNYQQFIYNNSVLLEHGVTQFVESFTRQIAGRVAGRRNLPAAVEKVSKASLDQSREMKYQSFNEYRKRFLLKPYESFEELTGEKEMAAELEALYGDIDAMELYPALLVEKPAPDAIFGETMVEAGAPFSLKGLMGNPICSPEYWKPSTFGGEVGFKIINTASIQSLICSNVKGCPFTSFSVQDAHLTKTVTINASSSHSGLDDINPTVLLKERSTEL
Experimental: as §1

SMILES: CC(=O)Oc1c(C(C)(C)C)cc(/C=[N+](/C)[O-])cc1C(C)(C)C [Example 9, α-(4-acetoxy-3,5-di-tert-butylphenyl)-N-methylnitrone]
melting point: 136 to 143 °C

SMILES: COc1ccc2c(c1)c(CC(=O)O)c(C)n2C(=O)c1ccc(Cl)cc1 [indomethacin]
Paw volume compared to vehicle controls [1]: significantly reduced paw volume

melting point: 202 to 222 °C
SMILES: CCC(=O)Oc1c(C(C)(C)C)cc(/C=[N+](\[O-])C(C)(C)C)cc1C(C)(C)C [Example 8, α-(4-propionyloxy-3,5-di-tert-butylphenyl)-N-tert-butylnitrone]

SMILES: CC(=O)Oc1c(C(C)(C)C)cc(/C=[N+](\[O-])C(C)(C)C)cc1C(C)(C)C [Example 1, α-(4-Acetoxy-3,5-di-tert-butylphenyl)-N-tert-butylnitrone]
Inhibition of COX-1 (cyclooxygenase 1 (COX-1)): did not significantly affect
Inhibition of COX-2 (cyclooxygenase 2 (COX-2)): did not significantly affect
